From ChEMBL document CHEMBL1201862, “PubChem BioAssay data set” (2004)
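Grown in 96-well plates, cells were treated for 48 hours with each compound at five concentrations. Insufficient inhibition: endpoint recorded as highest concentration tested. The concentration for 50% growth inhibition is given as GI50.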 The source made the active and inactive calls. No stated cut-off is given here; in the data, active = GI50 up to about 1.1 µM and inactive = higher.

How the values were obtained:
Test in all cases: inhibition of tumour cell growth, NCI panel, 48 h
SW-620 = test system: SW-620
SK-MEL-2 = test system: SK-MEL-2
OVCAR-5 = test system: OVCAR-5
A498 = test system: A498
K562 = test system: K562
Malme-3M = test system: Malme-3M
KM-20L2 = test system: KM-20L2
LXFL 529 = test system: LXFL 529
U-251 = test system: U-251
HT-29 = test system: HT-29
A549 = test system: A549
SNB-19 = test system: SNB-19
KM12 = test system: KM12
786-0 = test system: 786-0
HOP-18 = test system: HOP-18
NCI-H23 = test system: NCI-H23
CCRF-CEM = test system: CCRF-CEM
M19-MEL = test system: M19-MEL
HL-60 = test system: HL-60
SN12C = test system: SN12C
SNB-78 = test system: SNB-78
HOP-62 = test system: HOP-62
UACC-62 = test system: UACC-62
SF-295 = test system: SF-295
RXF 393 = test system: RXF 393
DMS-114 = test system: DMS-114
MOLT-4 = test system: MOLT-4
EKVX = test system: EKVX
SR = test system: SR
SF-539 = test system: SF-539
NCI-H226 = test system: NCI-H226
SF-268 = test system: SF-268
DMS-273 = test system: DMS-273
OVCAR-8 = test system: OVCAR-8
SK-OV-3 = test system: SK-OV-3
CAKI-1 = test system: CAKI-1
TK-10 = test system: TK-10
DLD-1 = test system: DLD-1
COLO 205 = test system: COLO 205
HOP-92 = test system: HOP-92
LOX IMVI = test system: LOX IMVI
UO-31 = test system: UO-31
RXF 631 = test system: RXF 631
SK-MEL-5 = test system: SK-MEL-5
XF498 = test system: XF498
OVCAR-4 = test system: OVCAR-4
UACC-257 = test system: UACC-257
IGROV-1 = test system: IGROV-1
ACHN = test system: ACHN
SK-MEL-28 = test system: SK-MEL-28
NCI-H460 = test system: NCI-H460
OVCAR-3 = test system: OVCAR-3
M14 = test system: M14
RPMI-8226 = test system: RPMI-8226
HCC 2998 = test system: HCC 2998
HCT-116 = test system: HCT-116
NCI-H522 = test system: NCI-H522
HCT-15 = test system: HCT-15
SNB-75 = test system: SNB-75

**Q.** For `O=[N+]([O-])c1ccc(C2SCc3nc4ccccc4n32)cc1` (stereo not drawn), which GI50 (SW-620) is on record?
**A.** > 100 µM (inactive)

**Q.** And the GI50 (SK-MEL-2)?
**A.** 60.1 µM (inactive)

**Q.** What about the GI50 (OVCAR-5) of the same molecule?
**A.** 17.6 µM (inactive)

**Q.** What about the GI50 (A498) of the same molecule?
**A.** 88.3 µM (inactive)

**Q.** What about the GI50 (K562) of the same molecule?
**A.** 33.4 µM (inactive)

**Q.** What about the GI50 (Malme-3M) of the same molecule?
**A.** 40.1 µM (inactive)

**Q.** And the GI50 (KM-20L2)?
**A.** > 100 µM (inactive)

**Q.** What about the GI50 (LXFL 529) of the same molecule?
**A.** 43.4 µM (inactive)

**Q.** And the GI50 (U-251)?
**A.** 93.8 µM (inactive)

**Q.** What about the GI50 (HT-29) of the same molecule?
**A.** > 100 µM (inactive)

**Q.** And the GI50 (A549)?
**A.** 50.4 µM (inactive)

**Q.** What about the GI50 (SNB-19) of the same molecule?
**A.** > 100 µM (inactive)

**Q.** And the GI50 (KM12)?
**A.** 73.3 µM (inactive)

**Q.** What about the GI50 (786-0) of the same molecule?
**A.** > 100 µM (inactive)

**Q.** What about the GI50 (HOP-18) of the same molecule?
**A.** 88.3 µM (inactive)

**Q.** And the GI50 (NCI-H23)?
**A.** 26.7 µM (inactive)

**Q.** What about the GI50 (CCRF-CEM) of the same molecule?
**A.** 65.9 µM (inactive)

**Q.** What about the GI50 (M19-MEL) of the same molecule?
**A.** 81.8 µM (inactive)

**Q.** What about the GI50 (HL-60) of the same molecule?
**A.** 43.9 µM (inactive)

**Q.** And the GI50 (SN12C)?
**A.** 56.1 µM (inactive)

**Q.** And the GI50 (SNB-78)?
**A.** > 100 µM (inactive)

**Q.** And the GI50 (HOP-62)?
**A.** > 100 µM (inactive)

**Q.** And the GI50 (UACC-62)?
**A.** 32.1 µM (inactive)

**Q.** And the GI50 (SF-295)?
**A.** 32.6 µM (inactive)

**Q.** What about the GI50 (RXF 393) of the same molecule?
**A.** 36.7 µM (inactive)

**Q.** What about the GI50 (DMS-114) of the same molecule?
**A.** 35.1 µM (inactive)

**Q.** What about the GI50 (MOLT-4) of the same molecule?
**A.** 28.1 µM (inactive)

**Q.** And the GI50 (EKVX)?
**A.** 44.3 µM (inactive)

**Q.** And the GI50 (SR)?
**A.** 53.6 µM (inactive)

**Q.** What about the GI50 (SF-539) of the same molecule?
**A.** > 100 µM (inactive)

**Q.** What about the GI50 (NCI-H226) of the same molecule?
**A.** 29.2 µM (inactive)

**Q.** And the GI50 (SF-268)?
**A.** > 100 µM (inactive)

**Q.** What about the GI50 (DMS-273) of the same molecule?
**A.** 54.1 µM (inactive)

**Q.** And the GI50 (OVCAR-8)?
**A.** > 100 µM (inactive)

**Q.** What about the GI50 (SK-OV-3) of the same molecule?
**A.** 92.9 µM (inactive)

**Q.** And the GI50 (CAKI-1)?
**A.** 61.4 µM (inactive)

**Q.** What about the GI50 (TK-10) of the same molecule?
**A.** 43.4 µM (inactive)

**Q.** And the GI50 (DLD-1)?
**A.** 89.7 µM (inactive)

**Q.** What about the GI50 (COLO 205) of the same molecule?
**A.** > 100 µM (inactive)

**Q.** And the GI50 (HOP-92)?
**A.** 23.1 µM (inactive)

**Q.** What about the GI50 (LOX IMVI) of the same molecule?
**A.** 74.1 µM (inactive)

**Q.** And the GI50 (UO-31)?
**A.** 24.8 µM (inactive)

**Q.** What about the GI50 (RXF 631) of the same molecule?
**A.** > 100 µM (inactive)

**Q.** What about the GI50 (SK-MEL-5) of the same molecule?
**A.** 17.4 µM (inactive)

**Q.** What about the GI50 (XF498) of the same molecule?
**A.** 12.3 µM (inactive)

**Q.** What about the GI50 (OVCAR-4) of the same molecule?
**A.** 76.9 µM (inactive)

**Q.** And the GI50 (UACC-257)?
**A.** 42.4 µM (inactive)

**Q.** What about the GI50 (IGROV-1) of the same molecule?
**A.** 19.8 µM (inactive)

**Q.** What about the GI50 (ACHN) of the same molecule?
**A.** 47.8 µM (inactive)

**Q.** What about the GI50 (SK-MEL-28) of the same molecule?
**A.** > 100 µM (inactive)

**Q.** And the GI50 (NCI-H460)?
**A.** > 100 µM (inactive)

**Q.** For `Cc1cc2c(ccc3c(C)cc(=O)oc32)o1`, which GI50 (OVCAR-3) is on record?
**A.** > 100 µM (inactive)

**Q.** What about the GI50 (SW-620) of the same molecule?
**A.** > 100 µM (inactive)

**Q.** What about the GI50 (SK-MEL-2) of the same molecule?
**A.** > 100 µM (inactive)

**Q.** What about the GI50 (OVCAR-5) of the same molecule?
**A.** > 100 µM (inactive)

**Q.** What about the GI50 (M14) of the same molecule?
**A.** > 100 µM (inactive)

**Q.** And the GI50 (RPMI-8226)?
**A.** > 100 µM (inactive)

**Q.** What about the GI50 (K562) of the same molecule?
**A.** > 100 µM (inactive)

**Q.** What about the GI50 (Malme-3M) of the same molecule?
**A.** > 100 µM (inactive)

**Q.** What about the GI50 (HCC 2998) of the same molecule?
**A.** > 100 µM (inactive)

**Q.** And the GI50 (KM-20L2)?
**A.** > 100 µM (inactive)

**Q.** And the GI50 (LXFL 529)?
**A.** > 100 µM (inactive)

**Q.** And the GI50 (U-251)?
**A.** > 100 µM (inactive)

**Q.** And the GI50 (HT-29)?
**A.** > 100 µM (inactive)

**Q.** What about the GI50 (A549) of the same molecule?
**A.** > 100 µM (inactive)

**Q.** And the GI50 (SNB-19)?
**A.** > 100 µM (inactive)

**Q.** And the GI50 (KM12)?
**A.** > 100 µM (inactive)

**Q.** What about the GI50 (786-0) of the same molecule?
**A.** > 100 µM (inactive)

**Q.** And the GI50 (HOP-18)?
**A.** > 55.6 µM (inactive)

**Q.** And the GI50 (NCI-H23)?
**A.** > 100 µM (inactive)

**Q.** What about the GI50 (CCRF-CEM) of the same molecule?
**A.** > 100 µM (inactive)

**Q.** And the GI50 (M19-MEL)?
**A.** > 100 µM (inactive)

**Q.** What about the GI50 (HCT-116) of the same molecule?
**A.** > 100 µM (inactive)

**Q.** What about the GI50 (SN12C) of the same molecule?
**A.** > 100 µM (inactive)

**Q.** What about the GI50 (SNB-78) of the same molecule?
**A.** > 58.5 µM (inactive)

**Q.** And the GI50 (HOP-62)?
**A.** > 100 µM (inactive)

**Q.** And the GI50 (UACC-62)?
**A.** > 100 µM (inactive)

**Q.** And the GI50 (SF-295)?
**A.** > 100 µM (inactive)

**Q.** And the GI50 (RXF 393)?
**A.** 78.3 µM (inactive)

**Q.** What about the GI50 (DMS-114) of the same molecule?
**A.** > 100 µM (inactive)

**Q.** What about the GI50 (NCI-H522) of the same molecule?
**A.** > 83.6 µM (inactive)

**Q.** What about the GI50 (MOLT-4) of the same molecule?
**A.** > 100 µM (inactive)

**Q.** And the GI50 (EKVX)?
**A.** > 100 µM (inactive)

**Q.** And the GI50 (SR)?
**A.** > 100 µM (inactive)

**Q.** What about the GI50 (SF-539) of the same molecule?
**A.** > 100 µM (inactive)

**Q.** And the GI50 (NCI-H226)?
**A.** > 100 µM (inactive)

**Q.** And the GI50 (SF-268)?
**A.** > 81.3 µM (inactive)

**Q.** And the GI50 (DMS-273)?
**A.** > 100 µM (inactive)

**Q.** And the GI50 (OVCAR-8)?
**A.** > 100 µM (inactive)

**Q.** What about the GI50 (SK-OV-3) of the same molecule?
**A.** > 100 µM (inactive)

**Q.** What about the GI50 (CAKI-1) of the same molecule?
**A.** > 100 µM (inactive)

**Q.** And the GI50 (TK-10)?
**A.** > 100 µM (inactive)

**Q.** And the GI50 (DLD-1)?
**A.** > 100 µM (inactive)

**Q.** What about the GI50 (COLO 205) of the same molecule?
**A.** > 100 µM (inactive)

**Q.** And the GI50 (HOP-92)?
**A.** > 100 µM (inactive)

**Q.** What about the GI50 (LOX IMVI) of the same molecule?
**A.** > 100 µM (inactive)

**Q.** What about the GI50 (UO-31) of the same molecule?
**A.** 98.9 µM (inactive)

**Q.** And the GI50 (RXF 631)?
**A.** > 100 µM (inactive)

**Q.** And the GI50 (SK-MEL-5)?
**A.** > 100 µM (inactive)

**Q.** And the GI50 (XF498)?
**A.** 40.6 µM (inactive)

**Q.** And the GI50 (OVCAR-4)?
**A.** > 100 µM (inactive)

**Q.** What about the GI50 (HCT-15) of the same molecule?
**A.** > 100 µM

**Q.** And the GI50 (UACC-257)?
**A.** > 100 µM (inactive)

**Q.** What about the GI50 (IGROV-1) of the same molecule?
**A.** > 100 µM (inactive)

**Q.** And the GI50 (ACHN)?
**A.** > 100 µM (inactive)

**Q.** And the GI50 (SNB-75)?
**A.** 35.6 µM (inactive)

**Q.** What about the GI50 (SK-MEL-28) of the same molecule?
**A.** > 100 µM (inactive)

**Q.** What about the GI50 (NCI-H460) of the same molecule?
**A.** > 100 µM (inactive)
